According to article PMC3914206:

Tests used:
Experiment in all cases: KiNativ chemical proteomics profiling in HeLa and PC3 cell lysates
[1] = target: T1, selected panels of kinases in HeLa and PC3 cell lysates (Homo sapiens, UniProt O14936); type: binding; settings: 10 uM; proteome PC3; peptide ETGQQFAVkIVDVAK; labeling site Lys1
T1 construct: endogenous in cells; host or cells: HeLa and PC3 cell lysates

[2] = target: T2, selected panels of kinases in HeLa and PC3 cell lysates (Homo sapiens, UniProt O75716); type: binding; settings: 10 uM, peptide DLk[…], labeling site Lys2
T2 construct: endogenous in cells; host or cells: HeLa and PC3 cell lysates

[3] = target: T3, selected panels of kinases in HeLa and PC3 cell lysates (Homo sapiens, UniProt P23743); type: binding; settings: 10 uM; proteome HEL; peptide […]kSGGK; labeling site ATP
T3 construct: endogenous in cells; host or cells: HeLa and PC3 cell lysates

[4] = target: T4, selected panels of kinases in HeLa and PC3 cell lysates (Homo sapiens, UniProt Q13164); type: binding
T4 construct: endogenous in cells; host or cells: HeLa and PC3 cell lysates

[5] = target: T5, selected panels of kinases in HeLa and PC3 cell lysates (Homo sapiens, UniProt Q13418); type: binding; settings: 10 uM
T5 construct: endogenous in cells; host or cells: HeLa and PC3 cell lysates
T5 sequence (Q13418 1-452): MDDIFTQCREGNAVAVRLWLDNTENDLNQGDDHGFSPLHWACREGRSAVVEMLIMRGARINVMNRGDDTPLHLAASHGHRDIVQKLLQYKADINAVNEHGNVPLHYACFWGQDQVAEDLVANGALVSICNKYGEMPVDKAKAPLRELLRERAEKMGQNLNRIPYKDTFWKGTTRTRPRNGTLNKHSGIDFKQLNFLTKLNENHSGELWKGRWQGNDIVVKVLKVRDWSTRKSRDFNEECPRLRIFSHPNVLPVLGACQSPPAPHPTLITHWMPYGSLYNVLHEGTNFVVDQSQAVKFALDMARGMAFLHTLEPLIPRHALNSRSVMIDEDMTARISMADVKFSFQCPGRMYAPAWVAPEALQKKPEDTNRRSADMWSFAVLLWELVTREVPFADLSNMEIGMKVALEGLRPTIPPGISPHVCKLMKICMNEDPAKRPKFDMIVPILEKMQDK

[6] = target: T6, selected panels of kinases in HeLa and PC3 cell lysates (Homo sapiens, UniProt Q13464); type: binding; settings: 10 uM; ROCK1; peptide kLQLELNQER; proteome PC3; labeling site Other
T6 construct: endogenous in cells; host or cells: HeLa and PC3 cell lysates

[7] = target: T7, selected panels of kinases in HeLa and PC3 cell lysates (Homo sapiens, UniProt Q8TBX8); type: binding; settings: 10 uM, PIP4K2C, labeling site ATP
T7 construct: endogenous in cells; host or cells: HeLa and PC3 cell lysates
T7 sequence (Q8TBX8 1-421): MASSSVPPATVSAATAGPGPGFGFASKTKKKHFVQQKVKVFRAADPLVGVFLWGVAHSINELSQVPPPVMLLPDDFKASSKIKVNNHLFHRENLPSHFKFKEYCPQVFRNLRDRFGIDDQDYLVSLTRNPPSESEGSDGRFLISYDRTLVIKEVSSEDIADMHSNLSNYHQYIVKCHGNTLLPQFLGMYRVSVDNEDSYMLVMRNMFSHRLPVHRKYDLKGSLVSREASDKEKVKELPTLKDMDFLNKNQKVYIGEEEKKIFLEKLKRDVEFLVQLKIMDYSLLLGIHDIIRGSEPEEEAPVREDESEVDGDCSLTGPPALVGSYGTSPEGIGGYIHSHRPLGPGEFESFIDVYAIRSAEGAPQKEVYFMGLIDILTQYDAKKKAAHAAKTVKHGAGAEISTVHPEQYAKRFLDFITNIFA

[8] = target: T8, selected panels of kinases in HeLa and PC3 cell lysates (Homo sapiens, UniProt Q96J92); type: binding; settings: 10 uM; Wnk4; peptide DLk[…]; proteome PC3; labeling site Lys2
T8 construct: endogenous in cells; host or cells: HeLa and PC3 cell lysates

[9] = target: T9, selected panels of kinases in HeLa and PC3 cell lysates (Homo sapiens, UniProt Q9P2K8); type: binding; settings: 10 uM
T9 construct: endogenous in cells; host or cells: HeLa and PC3 cell lysates

[10] = target: T10, selected panels of kinases in HeLa and PC3 cell lysates (Homo sapiens, UniProt Q9Y6E0); type: binding; settings: 10 uM; proteome HEL; peptide DIk[…]; labeling site Lys2
T10 construct: endogenous in cells; host or cells: HeLa and PC3 cell lysates

[11] = system: selected panels of kinases in HeLa and PC3 cell lysates; type: binding, human; settings: 10 uM; for % Inhibition PI4KA,PI4KAP2: peptide SGTPMQSAAkAPYLAK, labeling site ATP; for % Inhibiton, MAP3K2,MAP3K3: peptide DIkGANILR; for % Inhibiton, IKKe,TBK1: peptide DIkPGNIMR; for % Inhibiton, JNK1,JNK2,JNK3: peptide DLkPSNIVVK; for % Inhibiton, MAP2K1,MAP2K2: peptide DVkPSNILVNSR
[12] = proteome PC3, peptide DLk[…], labeling site Lys2
[13] = peptide DIk[…], proteome HEL, labeling site Lys2
[14] = peptide DIk[…], proteome PC3, labeling site Lys2
[15] = proteome HEL, labeling site Lys2
[16] = proteome HEL, peptide DLk[…], labeling site Lys2
[17] = proteome PC3, labeling site Lys2
[18] = proteome PC3, peptide DIk[…], labeling site Lys2

T9 sequence (Q9P2K8 whole entry): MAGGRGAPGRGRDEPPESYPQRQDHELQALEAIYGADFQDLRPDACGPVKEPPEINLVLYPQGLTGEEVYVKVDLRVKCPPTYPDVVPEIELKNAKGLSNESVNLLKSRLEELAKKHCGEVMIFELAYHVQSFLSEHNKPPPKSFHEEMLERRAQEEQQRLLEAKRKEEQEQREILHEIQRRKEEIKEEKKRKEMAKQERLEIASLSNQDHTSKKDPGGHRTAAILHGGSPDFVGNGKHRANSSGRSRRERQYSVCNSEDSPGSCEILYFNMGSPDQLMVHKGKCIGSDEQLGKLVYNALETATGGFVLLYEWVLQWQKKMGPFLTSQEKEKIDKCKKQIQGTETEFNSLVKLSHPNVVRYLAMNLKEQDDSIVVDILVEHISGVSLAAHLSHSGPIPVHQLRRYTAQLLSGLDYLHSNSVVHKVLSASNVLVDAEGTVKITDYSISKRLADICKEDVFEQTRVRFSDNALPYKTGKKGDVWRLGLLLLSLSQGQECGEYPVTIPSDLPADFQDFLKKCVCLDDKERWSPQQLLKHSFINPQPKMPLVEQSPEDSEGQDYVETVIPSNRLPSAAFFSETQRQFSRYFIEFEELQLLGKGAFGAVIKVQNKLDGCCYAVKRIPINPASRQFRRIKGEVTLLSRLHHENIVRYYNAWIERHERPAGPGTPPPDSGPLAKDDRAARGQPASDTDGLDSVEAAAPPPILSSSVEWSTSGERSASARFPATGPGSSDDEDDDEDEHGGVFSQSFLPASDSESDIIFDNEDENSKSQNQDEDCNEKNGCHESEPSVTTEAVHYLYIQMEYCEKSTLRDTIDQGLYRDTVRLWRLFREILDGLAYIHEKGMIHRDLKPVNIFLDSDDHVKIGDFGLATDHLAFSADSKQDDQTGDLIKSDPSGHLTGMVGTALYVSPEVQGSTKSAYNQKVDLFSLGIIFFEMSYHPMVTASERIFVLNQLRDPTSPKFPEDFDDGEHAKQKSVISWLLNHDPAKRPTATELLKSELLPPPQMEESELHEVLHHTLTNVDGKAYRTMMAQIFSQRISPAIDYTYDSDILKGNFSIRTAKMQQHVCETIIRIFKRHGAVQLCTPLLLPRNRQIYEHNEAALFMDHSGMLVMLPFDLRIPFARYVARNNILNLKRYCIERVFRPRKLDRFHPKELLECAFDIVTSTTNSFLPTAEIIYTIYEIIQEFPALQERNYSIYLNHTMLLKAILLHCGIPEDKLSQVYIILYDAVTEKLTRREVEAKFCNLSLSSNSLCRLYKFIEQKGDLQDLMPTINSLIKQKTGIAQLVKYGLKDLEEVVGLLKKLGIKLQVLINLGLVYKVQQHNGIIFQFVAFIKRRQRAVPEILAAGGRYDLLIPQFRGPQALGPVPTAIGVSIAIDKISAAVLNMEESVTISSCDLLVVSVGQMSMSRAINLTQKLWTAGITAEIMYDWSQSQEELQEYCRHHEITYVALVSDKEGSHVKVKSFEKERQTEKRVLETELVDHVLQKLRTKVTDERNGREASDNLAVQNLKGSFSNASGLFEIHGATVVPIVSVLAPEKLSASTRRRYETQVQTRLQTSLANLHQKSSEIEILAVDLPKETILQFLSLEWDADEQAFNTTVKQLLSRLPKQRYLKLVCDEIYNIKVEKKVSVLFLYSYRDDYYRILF
T4 sequence (Q13164 whole entry): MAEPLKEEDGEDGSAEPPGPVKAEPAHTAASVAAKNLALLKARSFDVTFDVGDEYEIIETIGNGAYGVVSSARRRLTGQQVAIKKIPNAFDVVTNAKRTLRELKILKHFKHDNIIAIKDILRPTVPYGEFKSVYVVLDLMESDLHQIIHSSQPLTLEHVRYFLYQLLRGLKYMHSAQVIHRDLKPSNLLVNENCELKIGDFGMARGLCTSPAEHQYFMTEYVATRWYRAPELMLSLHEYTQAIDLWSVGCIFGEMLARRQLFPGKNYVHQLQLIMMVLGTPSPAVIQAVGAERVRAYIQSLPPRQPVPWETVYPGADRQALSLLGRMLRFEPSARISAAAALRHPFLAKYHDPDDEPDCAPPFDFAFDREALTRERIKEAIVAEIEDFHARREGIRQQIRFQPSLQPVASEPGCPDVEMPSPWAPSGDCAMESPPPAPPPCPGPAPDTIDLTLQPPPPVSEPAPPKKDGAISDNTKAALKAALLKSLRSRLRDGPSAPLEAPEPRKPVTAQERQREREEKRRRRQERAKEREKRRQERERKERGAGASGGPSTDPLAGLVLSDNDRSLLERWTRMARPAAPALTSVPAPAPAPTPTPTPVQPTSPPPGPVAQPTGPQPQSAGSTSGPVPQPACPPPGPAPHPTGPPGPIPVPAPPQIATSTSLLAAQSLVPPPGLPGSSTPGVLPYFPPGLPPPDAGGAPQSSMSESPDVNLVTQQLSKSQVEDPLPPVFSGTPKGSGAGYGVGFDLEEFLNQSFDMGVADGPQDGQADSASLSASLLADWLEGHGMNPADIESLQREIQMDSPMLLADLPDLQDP
T2 sequence (O75716 whole entry): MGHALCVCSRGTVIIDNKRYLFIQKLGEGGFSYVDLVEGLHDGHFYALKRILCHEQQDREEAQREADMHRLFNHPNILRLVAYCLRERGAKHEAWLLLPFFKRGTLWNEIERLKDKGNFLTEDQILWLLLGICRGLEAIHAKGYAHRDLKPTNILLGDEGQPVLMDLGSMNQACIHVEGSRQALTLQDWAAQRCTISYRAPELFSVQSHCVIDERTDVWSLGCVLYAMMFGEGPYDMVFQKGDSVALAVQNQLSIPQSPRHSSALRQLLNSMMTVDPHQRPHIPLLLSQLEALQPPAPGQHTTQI
T10 sequence (Q9Y6E0 whole entry): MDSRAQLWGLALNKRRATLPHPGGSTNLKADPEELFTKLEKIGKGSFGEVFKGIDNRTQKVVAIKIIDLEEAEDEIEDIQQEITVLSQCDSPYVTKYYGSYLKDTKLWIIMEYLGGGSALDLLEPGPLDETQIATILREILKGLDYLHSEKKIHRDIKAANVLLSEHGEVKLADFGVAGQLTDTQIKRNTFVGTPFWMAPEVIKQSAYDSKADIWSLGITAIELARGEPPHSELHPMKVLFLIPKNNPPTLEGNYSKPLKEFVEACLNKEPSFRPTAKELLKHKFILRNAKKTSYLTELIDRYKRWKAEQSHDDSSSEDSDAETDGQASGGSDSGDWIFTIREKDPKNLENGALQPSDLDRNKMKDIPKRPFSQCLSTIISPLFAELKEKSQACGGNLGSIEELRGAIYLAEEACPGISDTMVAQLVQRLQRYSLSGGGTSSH
T8 sequence (Q96J92 whole entry): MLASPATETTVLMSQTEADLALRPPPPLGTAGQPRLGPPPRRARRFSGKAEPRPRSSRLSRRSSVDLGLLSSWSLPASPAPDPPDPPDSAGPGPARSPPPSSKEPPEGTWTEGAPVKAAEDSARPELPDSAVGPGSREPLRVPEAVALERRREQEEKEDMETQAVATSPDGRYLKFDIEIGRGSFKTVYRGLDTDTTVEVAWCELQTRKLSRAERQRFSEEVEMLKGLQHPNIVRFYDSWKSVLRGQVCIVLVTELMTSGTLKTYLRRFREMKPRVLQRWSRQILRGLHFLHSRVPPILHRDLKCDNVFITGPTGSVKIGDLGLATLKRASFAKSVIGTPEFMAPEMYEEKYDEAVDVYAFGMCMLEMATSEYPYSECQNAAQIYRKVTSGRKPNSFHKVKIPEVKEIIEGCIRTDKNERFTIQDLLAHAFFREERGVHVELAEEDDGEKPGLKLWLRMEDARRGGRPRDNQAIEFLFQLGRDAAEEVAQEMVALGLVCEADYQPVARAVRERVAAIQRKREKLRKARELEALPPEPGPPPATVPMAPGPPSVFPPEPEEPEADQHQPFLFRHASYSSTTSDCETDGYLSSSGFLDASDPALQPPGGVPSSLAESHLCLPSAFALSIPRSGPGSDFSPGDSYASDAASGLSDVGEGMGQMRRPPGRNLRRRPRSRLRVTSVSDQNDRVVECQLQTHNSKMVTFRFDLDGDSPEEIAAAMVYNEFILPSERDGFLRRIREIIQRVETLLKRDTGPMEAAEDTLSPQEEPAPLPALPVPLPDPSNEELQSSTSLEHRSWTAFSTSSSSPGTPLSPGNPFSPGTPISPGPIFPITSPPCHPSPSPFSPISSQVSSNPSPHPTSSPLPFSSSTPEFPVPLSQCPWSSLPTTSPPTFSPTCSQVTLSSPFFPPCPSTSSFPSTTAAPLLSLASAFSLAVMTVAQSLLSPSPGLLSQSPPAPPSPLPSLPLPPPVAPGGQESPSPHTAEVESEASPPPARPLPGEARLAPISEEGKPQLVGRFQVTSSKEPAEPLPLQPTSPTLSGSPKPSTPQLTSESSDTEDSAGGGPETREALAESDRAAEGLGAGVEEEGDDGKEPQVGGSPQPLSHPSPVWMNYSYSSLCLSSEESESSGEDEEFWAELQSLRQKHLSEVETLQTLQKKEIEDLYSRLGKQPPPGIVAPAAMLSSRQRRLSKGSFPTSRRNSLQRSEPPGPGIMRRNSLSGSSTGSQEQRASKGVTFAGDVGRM

For `COc1cc(C(=O)N2CCC(N3CCN(C)CC3)CC2)ccc1Nc1ncc2c(n1)N(C1CCCC1)c1ccccc1C(=O)N2C` [Compound 25, 11-cyclopentyl-2-((2-methoxy-4-(4-(4-methylpiperazin-1-yl)piperidine-1-carbonyl)phenyl)amino)-5-methyl-5H-benzo[e]pyrimido[5,4-b][1,4]diazepin-6(11H)-one], the “% Inhibiton, CASK” value [1] was -0.2%, the “% Inhibiton, MPSK1” value ([2]; proteome HEL) was 29.5% and the “% Inhibiton, MPSK1” value ([2]; proteome PC3) was -4.3%. For the same compound, the “% Inhibiton, DGKA” value [3] was 8.1%, the “ERK5 target occupancy (KiNativ)” value ([4]; 10 μM, HeLa and PC3 cell lysates, only ERK5 exceeded this level) was “higher than 90%” and the “% Inhibiton, Erk5” value ([4]; 10 uM, proteome HEL, peptide DLk[…], labeling site Lys2) was greater than 95%. For the same compound, the “% Inhibiton, ILK” value ([5]; proteome HEL, peptide WQGNDIVVkVLK, labeling site Lys1) was -3.0%, the “% Inhibiton, ILK” value ([5]; proteome PC3, peptide ISMADVkFSFQCPGR, labeling site Protein Kinase Domain) was 8.4% and the “% Inhibiton, ILK” value ([5]; proteome PC3, peptide WQGNDIVVkVLK, labeling site Lys1) was -5.9%. The “% Inhibition ROCK1” value [6] was -4.2%, the “% Inhibition PIP4K2C” value ([7]; peptide ELPTLkDMDFLNK, proteome PC3) was 21.5% and the “% Inhibition PIP4K2C” value ([7]; peptide TLVIk[…], proteome HEL) was 9.5%. For the same compound, the “% Inhibition PIP4K2C” value ([7]; peptide TLVIk[…], proteome PC3) was -0.123%, the “% Inhibition Wnk4” value [8] was -16.3% and the “% Inhibiton, GCN2” value ([9]; proteome HEL, peptide LDGCCYAVkR, labeling site Lys1) was 4.5%. For the same compound, the “% Inhibiton, GCN2” value [9, 12] was -1.6%, the “% Inhibiton, GCN2” value ([9]; proteome PC3, peptide LDGCCYAVkR, labeling site Lys1) was -1.5% and the “% Inhibiton, MST3” value [10] was 7.3%. The “% Inhibition PI4KA,PI4KAP2” value ([11]; proteome HEL) was 23.7%, the “% Inhibition PI4KA,PI4KAP2” value ([11]; proteome PC3) was -7.2% and the “% Inhibition PKCa,PKCb” value ([11]; PKCa,PKCb, peptide DLk[…], proteome PC3, labeling site Lys2) was 16.4%. For the same compound, the “% Inhibition PKD1,PKD2” value ([11]; PKD1,PKD2, peptide NIVHCDLk[…], proteome HEL, labeling site Lys2) was -30.1%, the “% Inhibition ROCK1,ROCK2” value ([11]; ROCK1,ROCK2, peptide DVkPDNMLLDK, proteome PC3, labeling site Lys2) was 5.7% and the “% Inhibition RSK1,RSK2 domain1” value ([11]; RSK1,RSK2 domain1, peptide DLk[…], proteome HEL, labeling site Lys2) was -6.2%. For the same compound, the “% Inhibition RSK1,RSK4 domain1” value ([11]; RSK1,RSK4 domain1, peptide VLGQGSFGkVFLVR, proteome HEL, labeling site ATP Loop) was -4.9%, the “% Inhibition SRPK1,SRPK2” value ([11]; SRPK1,SRPK2, peptide FVAMkVVK, proteome PC3, labeling site Lys1) was -2.0% and the “% Inhibition TAO1,TAO3” value [11, 13] was 21.0%. The “% Inhibition TAO1,TAO3” value [11, 14] was -5.2%, the “% Inhibition Wnk1,Wnk2,Wnk3” value ([11]; Wnk1,Wnk2,Wnk3, peptide DLk[…], proteome HEL, labeling site Lys2) was 9.6% and the “% Inhibition Wnk1,Wnk2,Wnk4” value ([11]; Wnk1,Wnk2,Wnk4, peptide IGDLGLATLkR, proteome PC3, labeling site Activation Loop) was -9.4%. For the same compound, the “% Inhibition ZC1/HGK,ZC2/TNIK,ZC3/MINK” value [11, 13] was 10.0%, the “% Inhibition ZC1/HGK,ZC2/TNIK,ZC3/MINK” value [11, 14] was -6.5% and the “% Inhibition p70S6K,p70S6Kb” value ([11]; p70S6K,p70S6Kb, peptide GGYGkVFQVR, proteome PC3, labeling site ATP Loop) was -1.5%. The “% Inhibiton, MAP3K2,MAP3K3” value [11, 15] was 14.4%, the “% Inhibiton, IKKe,TBK1” value [11, 15] was 18.2% and the “% Inhibiton, NEK6,NEK7” value ([11]; proteome HEL, peptide DIk[…], labeling site Lys2) was 6.9%. For the same compound, the “% Inhibiton, JNK1,JNK2,JNK3” value [11, 15] was 33.5%, the “% Inhibiton, AMPKa1,AMPKa2” value [11, 16] was 9.6% and the “% Inhibiton, MARK2,MARK3” value [11, 16] was 9.5%. For the same compound, the “% Inhibiton, MAST2,MAST4” value [11, 16] was 28.2%, the “% Inhibiton, p38d,p38g” value [11, 16] was 12.3% and the “% Inhibiton, MAP2K1,MAP2K2” value [11, 15] was -0.9%. The “% Inhibiton, MYO3A,MYO3B” value ([11]; proteome HEL, peptide DVk[…], labeling site Lys2) was -3.3%, the “% Inhibiton, BMX,BTK” value ([11]; proteome HEL, peptide GQYDVAIkMIK, labeling site Lys1) was roughly 43.0% and the “% Inhibiton, MAP3K5,MAP3K6,MAP3K7” value ([11]; proteome HEL, peptide IAIkEIPERDSR, labeling site Lys1) was -4.3%. For the same compound, the “% Inhibiton, KSR1,KSR2” value ([11]; proteome HEL, peptide SkNVFYDNGK, labeling site Protein Kinase Domain) was 6.2%, the “% Inhibiton, AMPKa1,AMPKa2” value ([11]; proteome HEL, peptide VAVkILNR, labeling site Lys1) was 10.9% and the “% Inhibiton, MSK1,MSK2 domain1” value ([11]; proteome HEL, peptide VLGTGAYGkVFLVR, labeling site ATP Loop) was -9.5%. For the same compound, the “% Inhibiton, ABL,ARG” value ([11]; proteome HEL, peptide […]kFPIK, labeling site Activation Loop) was 17.5%, the “% Inhibiton, MAP3K2,MAP3K3” value [11, 17] was -0.6% and the “% Inhibiton, IKKe,TBK1” value [11, 17] was 11.0%. The “% Inhibiton, MST1,MST2” value [11, 18] was 8.8%, the “% Inhibiton, MST4,YSK1” value [11, 18] was 1.0% and the “% Inhibiton, NEK6,NEK7” value [11, 18] was -5.0%. The “% Inhibiton, CaMK2a,CaMK2b,CaMK2d,CaMK2g” value ([11]; proteome PC3, peptide DLkPENLLLASK, labeling site Lys2) was -1.1%, the “% Inhibiton, JNK1,JNK2,JNK3” value [11, 17] was 30.3% and the “% Inhibiton, AMPKa1,AMPKa2” value [11, 12] was 16.4%. The “% Inhibiton, CDK11,CDK8” value [11, 12] was 8.9%, the “% Inhibiton, MARK2,MARK3” value [11, 12] was 11.6% and the “% Inhibiton, p38d,p38g” value [11, 12] was -6.8%. The “% Inhibiton, MAP2K1,MAP2K2” value [11, 17] was -0.2%, the “% Inhibiton, CK1d,CK1e” value ([11]; proteome PC3, peptide DVk[…], labeling site Lys2) was -16.9% and the “% Inhibiton, MARK3,MARK4” value ([11]; proteome PC3, peptide EVAIkIIDK, labeling site Lys1) was -5.2%. The “% Inhibiton, FYN,SRC,YES” value ([11]; proteome PC3, peptide QGAk[…], labeling site Activation Loop) was -32.2% and the “% Inhibiton, AMPKa1,AMPKa2” value ([11]; proteome PC3, peptide VAVkILNR, labeling site Lys1) was 14.9%.
